According to ChEMBL document CHEMBL1201862, “PubChem BioAssay data set” (2004):
Active and inactive are the calls of the source.

Tests used:
H9c2 = test: cells; format: functional, cell-based; conditions: Rattus norvegicus, H9c2, Myocardium;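 further: confirmatory concentration-response retest of ultra-high-throughput screening hits for modulation of myocardial damage; cell death induced by hydrogen peroxide oxidative stress; compound pretreatment for 60 min then peroxide exposure for 2 h; potency is for protecting the cells against peroxide damage rather than for killing them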
[1] = bead-based luminescence quenchers, dual-tagged ARNT – biochemical, AlphaScreen, cherry-pick, artefact control for ARNT-TACC3 interaction inhibitor project, dose response (AID 651705); format: functional;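 further: AlphaScreen bead proximity signal that flags compounds interfering with the detection technology; potency reflects signal decrease which marks the compound as an assay artifact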
[2] = target: Photoreceptor-specific nuclear receptor (Homo sapiens, UniProt Q9Y5X4); format: functional, cell-based;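 further: CHO-S cells with Gal4-NCOR and VP16-NR2E3 two-hybrid luciferase reporter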
[3] = target: T1, Probable nicotinate-nucleotide adenylyltransferase (Staphylococcus aureus (strain N315), UniProt P65502); format: functional, Staphylococcus aureus subsp. aureus N315;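 on IC50 Mean: confirmatory dose-response retesting of NadD inhibitor hits first found in an ultra-high-throughput screen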
[4] = target: T1, Probable nicotinate-nucleotide adenylyltransferase; format: functional, Staphylococcus aureus subsp. aureus N315; conditions: read-out: IC50_Mean
[5] = target: T2, Short transient receptor potential channel 4 (Mus musculus, UniProt Q9QUQ5); test: block of DAMGO-driven TRPC4 calcium entry – cell-based, HEK293 TRPC4/mu-opioid, Fluo-4 calcium, dose response (AID 434942); format: functional;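 further: potency of inhibitors blocking the TRPC4 calcium response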
T2 sequence (Q9QUQ5 whole entry): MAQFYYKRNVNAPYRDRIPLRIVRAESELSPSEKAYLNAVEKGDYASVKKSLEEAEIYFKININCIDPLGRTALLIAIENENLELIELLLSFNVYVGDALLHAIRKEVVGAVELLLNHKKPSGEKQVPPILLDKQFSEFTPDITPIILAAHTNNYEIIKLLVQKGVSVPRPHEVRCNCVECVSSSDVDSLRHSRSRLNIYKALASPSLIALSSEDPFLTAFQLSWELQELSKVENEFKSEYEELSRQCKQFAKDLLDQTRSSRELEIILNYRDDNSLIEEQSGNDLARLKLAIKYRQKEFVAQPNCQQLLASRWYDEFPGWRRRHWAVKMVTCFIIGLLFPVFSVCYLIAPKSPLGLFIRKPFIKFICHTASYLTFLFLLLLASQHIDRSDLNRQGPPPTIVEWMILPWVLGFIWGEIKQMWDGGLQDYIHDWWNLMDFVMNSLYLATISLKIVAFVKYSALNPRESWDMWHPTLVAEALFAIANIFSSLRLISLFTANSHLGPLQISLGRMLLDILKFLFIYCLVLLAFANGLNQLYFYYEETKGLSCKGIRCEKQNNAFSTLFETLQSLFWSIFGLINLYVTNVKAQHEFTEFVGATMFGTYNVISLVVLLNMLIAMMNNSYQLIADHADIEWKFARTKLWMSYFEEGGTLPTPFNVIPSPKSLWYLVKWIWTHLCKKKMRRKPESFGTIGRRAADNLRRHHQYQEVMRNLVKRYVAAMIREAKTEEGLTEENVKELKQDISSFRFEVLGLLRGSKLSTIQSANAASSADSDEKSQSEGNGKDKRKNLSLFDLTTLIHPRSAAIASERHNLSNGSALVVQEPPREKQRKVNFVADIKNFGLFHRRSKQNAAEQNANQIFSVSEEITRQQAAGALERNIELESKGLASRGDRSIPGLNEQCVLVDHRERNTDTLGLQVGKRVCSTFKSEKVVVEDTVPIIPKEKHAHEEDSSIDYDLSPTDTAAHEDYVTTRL

INS1 = test: INS-1E survival protection against cytokine death – cell-based, luminescence, retest, dose response (AID 449756); format: functional; conditions: Rattus norvegicus;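 further: cell death triggered by IL-1 beta plus TNF-alpha plus IFN-gamma mixture; protective hits raise ATP signal compared with cytokine alone wells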
Protein Wnt-3a = Protein Wnt-3a (Mus musculus, UniProt P27467); test: antagonism of Wnt3a pathway luciferase reporter – Wnt-LIGHT cells, luminescence, selectivity assay for Gli-SUFU antagonist project, dose response (AID 651570); format: functional; conditions: read-out: IC50_Mean;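 further: Wnt-LIGHT reporter cells stimulated with conditioned medium from Wnt3a-producing cells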
Galanin receptor type 3 = target: T3, Galanin receptor type 3 (Homo sapiens, UniProt O60755); test: Fluorescence-based cell-based primary high throughput dose response assay to identify antagonists of the Galanin Receptor 3 (GalR3).; format: functional
T3 sequence (O60755 whole entry): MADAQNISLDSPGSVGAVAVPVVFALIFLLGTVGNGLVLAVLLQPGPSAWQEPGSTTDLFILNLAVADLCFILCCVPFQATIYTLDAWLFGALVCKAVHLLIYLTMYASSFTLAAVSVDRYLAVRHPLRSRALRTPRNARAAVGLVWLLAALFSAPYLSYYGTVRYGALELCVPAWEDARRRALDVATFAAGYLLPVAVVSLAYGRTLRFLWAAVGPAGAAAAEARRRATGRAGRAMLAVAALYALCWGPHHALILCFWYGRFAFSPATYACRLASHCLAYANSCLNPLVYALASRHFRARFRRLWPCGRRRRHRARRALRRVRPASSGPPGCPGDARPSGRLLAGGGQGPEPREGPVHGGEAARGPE

cells [6] = format: functional, cell-based; conditions: HEK-CNG
[7] = target: T4, COUP transcription factor 2 (Homo sapiens, UniProt P24468); test: Luminescence-based cell-based high throughput dose response assay to identify inhibitors of COUP-TFII (NR2F2).; format: functional;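 further: HEK293 cells transiently cotransfected with COUP-TFII expression vector and reporter; luciferase reporter luminescence driven by COUP-TFII from the pX2-168 reporter plasmid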
T4 sequence (P24468 whole entry): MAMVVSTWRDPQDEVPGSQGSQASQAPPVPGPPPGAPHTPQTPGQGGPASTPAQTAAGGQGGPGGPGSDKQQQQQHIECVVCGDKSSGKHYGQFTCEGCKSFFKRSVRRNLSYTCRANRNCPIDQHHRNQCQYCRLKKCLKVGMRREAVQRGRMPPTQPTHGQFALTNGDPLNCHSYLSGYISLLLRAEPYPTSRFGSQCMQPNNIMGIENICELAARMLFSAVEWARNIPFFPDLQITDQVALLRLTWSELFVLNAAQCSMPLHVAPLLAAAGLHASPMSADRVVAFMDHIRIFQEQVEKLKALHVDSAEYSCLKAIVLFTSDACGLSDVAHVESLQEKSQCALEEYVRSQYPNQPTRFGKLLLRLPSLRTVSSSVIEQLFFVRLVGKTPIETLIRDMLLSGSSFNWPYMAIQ

[8] = NIH-3T3 fibroblast cytotoxicity, dose response, cytotoxicity control, cell-based, fluorescence, Alamar Blue, secondary assay (AID 2327); format: functional;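 further: NIH-3T3 mouse fibroblasts cultured with fluconazole at 8 µg/mL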
[9] = fluconazole-exposed Candida albicans growth modulators – fluorescence, retest, confirmation (AID 2467); format: functional, cell-based
[10] = Trypanosoma cruzi growth suppression in host cells – NIH3T3 host cells, beta-gal luminescence, confirmation (AID 2044); format: functional, cell-based;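 further: intracellular parasites grown in NIH/3T3 mouse fibroblasts as host cells; luminescent beta-galactosidase reporter signal from transgenic T. cruzi replicating inside host cells; inhibitors lower the luminescence signal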
[11] = NIH3T3 cell viability loss – ATP luminescence, mouse fibroblasts, counter-screen, dose response (AID 2010); format: functional, cell-based;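 further: cells exposed to compound for about 90 hours before reading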
cells [12] = format: functional, cell-based
[13] = target: T5, Nuclear receptor subfamily 0 group B member 1 (Homo sapiens, UniProt P51843); format: functional, cell-based;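 further: HEK293T cells transfected with SF-1 and DAX-1 plus StAR promoter luciferase reporter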
T5 sequence (P51843 whole entry): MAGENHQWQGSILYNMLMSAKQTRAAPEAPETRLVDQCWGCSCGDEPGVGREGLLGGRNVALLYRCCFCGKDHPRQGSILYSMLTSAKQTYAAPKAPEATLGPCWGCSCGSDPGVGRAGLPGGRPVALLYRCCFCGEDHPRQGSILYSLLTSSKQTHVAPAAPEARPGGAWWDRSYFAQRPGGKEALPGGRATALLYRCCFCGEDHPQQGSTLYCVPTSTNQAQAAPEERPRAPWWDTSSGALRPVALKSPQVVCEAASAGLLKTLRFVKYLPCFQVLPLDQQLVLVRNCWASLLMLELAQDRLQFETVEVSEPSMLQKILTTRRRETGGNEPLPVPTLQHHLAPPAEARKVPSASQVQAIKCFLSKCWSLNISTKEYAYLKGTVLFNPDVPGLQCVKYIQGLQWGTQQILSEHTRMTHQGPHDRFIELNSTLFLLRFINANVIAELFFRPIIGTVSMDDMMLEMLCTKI

HEK293 [14] = test: cells; conditions: Homo sapiens
HEK293 [15] = test: cells; conditions: Homo sapiens; remark: listed apart in the source
[16] = target: T6, Voltage-gated N-type calcium channel alpha-1B subunit/Amyloid beta A4 precursor protein-binding family A member 1 (Homo sapiens, UniProt Q00975+Q02410); format: protein assay
[17] = target: T6, Voltage-gated N-type calcium channel alpha-1B subunit/Amyloid beta A4 precursor protein-binding family A member 1; format: protein assay; remark: listed apart in the source
HEK293 [18] = test: EBV LMP1 TES2 canonical NF-kB signalling blockers – cell-based, HEK293, luciferase, cherry-pick, dose response (AID 588343); format: functional; conditions: Homo sapiens
[19] = target: T7, Carboxy-terminal domain RNA polymerase II polypeptide A small phosphatase 1 (Homo sapiens, UniProt Q9GZU7); test: CTDSP1 inhibitors, concentration-response, biochemical, absorbance readout, ultra-high-throughput screen actives (AID 540297); format: functional
T7 sequence (Q9GZU7 whole entry): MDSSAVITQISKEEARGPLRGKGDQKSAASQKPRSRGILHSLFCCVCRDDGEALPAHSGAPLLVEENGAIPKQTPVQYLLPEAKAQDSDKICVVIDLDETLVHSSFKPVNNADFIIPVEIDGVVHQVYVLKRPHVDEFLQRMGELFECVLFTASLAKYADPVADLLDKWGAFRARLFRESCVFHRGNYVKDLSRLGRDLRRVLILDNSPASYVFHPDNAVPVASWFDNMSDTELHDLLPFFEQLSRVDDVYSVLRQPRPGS

[20] = target: T8, Low molecular weight phosphotyrosine protein phosphatase (Homo sapiens, UniProt P24666); format: functional; conditions: read-out: IC50_Mean
T8 sequence (P24666 whole entry): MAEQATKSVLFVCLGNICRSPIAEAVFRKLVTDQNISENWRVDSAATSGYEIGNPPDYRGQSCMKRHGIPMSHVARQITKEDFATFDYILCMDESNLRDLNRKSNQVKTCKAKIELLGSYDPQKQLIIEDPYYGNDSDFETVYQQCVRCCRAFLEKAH

[21] = target: Dual specificity tyrosine-phosphorylation-regulated kinase 1A (Rattus norvegicus, UniProt Q63470); format: biochemical, Homo sapiens
[22] = target: DNA repair and recombination protein RAD54-like (Homo sapiens, UniProt Q92698); test: RAD54 Holliday junction migration blockers – biochemical, fluorescence, cherry-picked samples, dose series, confirmation (AID 651657); format: functional
[23] = target: T9, Rac GTPase-activating protein 1 (Homo sapiens, UniProt Q9H0H5); test: blockers of MgcRacGAP-driven Rac1 GTP hydrolysis – biochemical, ADP Hunter fluorescence, primary and confirmatory, confirmation (AID 624330); format: functional
T9 sequence (Q9H0H5 whole entry): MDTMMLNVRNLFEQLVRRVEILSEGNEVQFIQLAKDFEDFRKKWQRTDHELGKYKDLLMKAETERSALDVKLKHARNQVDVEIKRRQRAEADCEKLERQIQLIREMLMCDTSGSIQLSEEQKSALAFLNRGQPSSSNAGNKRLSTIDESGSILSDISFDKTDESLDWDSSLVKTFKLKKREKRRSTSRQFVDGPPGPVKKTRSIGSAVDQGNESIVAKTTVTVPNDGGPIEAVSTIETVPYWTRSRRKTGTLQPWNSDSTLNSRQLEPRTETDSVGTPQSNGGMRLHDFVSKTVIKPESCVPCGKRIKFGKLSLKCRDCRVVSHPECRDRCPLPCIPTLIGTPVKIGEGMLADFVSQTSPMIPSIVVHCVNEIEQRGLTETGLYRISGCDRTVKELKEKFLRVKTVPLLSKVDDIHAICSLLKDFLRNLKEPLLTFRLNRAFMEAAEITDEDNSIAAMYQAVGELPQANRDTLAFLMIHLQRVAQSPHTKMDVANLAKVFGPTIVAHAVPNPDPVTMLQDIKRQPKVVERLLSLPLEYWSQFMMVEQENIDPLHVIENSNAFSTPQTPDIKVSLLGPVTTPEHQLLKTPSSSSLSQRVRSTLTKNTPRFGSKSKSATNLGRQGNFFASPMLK

[24] = target: Induced myeloid leukemia cell differentiation protein Mcl-1 (Homo sapiens, UniProt Q07820); format: functional
Sequence of Induced myeloid leukemia cell differentiation protein Mcl-1 (Q07820 whole entry): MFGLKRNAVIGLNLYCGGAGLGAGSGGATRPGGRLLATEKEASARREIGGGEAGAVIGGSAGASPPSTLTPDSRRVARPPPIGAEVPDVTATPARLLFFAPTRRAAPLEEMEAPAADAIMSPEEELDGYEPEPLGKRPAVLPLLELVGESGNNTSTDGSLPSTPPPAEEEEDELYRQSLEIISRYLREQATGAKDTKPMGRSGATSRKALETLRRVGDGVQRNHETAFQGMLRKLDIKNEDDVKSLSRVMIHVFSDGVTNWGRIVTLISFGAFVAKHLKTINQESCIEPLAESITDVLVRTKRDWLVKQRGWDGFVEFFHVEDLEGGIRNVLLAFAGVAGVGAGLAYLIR

T1 sequence (P65502 whole entry): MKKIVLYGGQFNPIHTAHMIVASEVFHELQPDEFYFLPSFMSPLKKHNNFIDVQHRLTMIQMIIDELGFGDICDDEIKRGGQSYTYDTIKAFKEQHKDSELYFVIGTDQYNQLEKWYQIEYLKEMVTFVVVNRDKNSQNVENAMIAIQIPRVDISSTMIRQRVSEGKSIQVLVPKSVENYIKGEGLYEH
T6 sequence (Q00975 whole entry): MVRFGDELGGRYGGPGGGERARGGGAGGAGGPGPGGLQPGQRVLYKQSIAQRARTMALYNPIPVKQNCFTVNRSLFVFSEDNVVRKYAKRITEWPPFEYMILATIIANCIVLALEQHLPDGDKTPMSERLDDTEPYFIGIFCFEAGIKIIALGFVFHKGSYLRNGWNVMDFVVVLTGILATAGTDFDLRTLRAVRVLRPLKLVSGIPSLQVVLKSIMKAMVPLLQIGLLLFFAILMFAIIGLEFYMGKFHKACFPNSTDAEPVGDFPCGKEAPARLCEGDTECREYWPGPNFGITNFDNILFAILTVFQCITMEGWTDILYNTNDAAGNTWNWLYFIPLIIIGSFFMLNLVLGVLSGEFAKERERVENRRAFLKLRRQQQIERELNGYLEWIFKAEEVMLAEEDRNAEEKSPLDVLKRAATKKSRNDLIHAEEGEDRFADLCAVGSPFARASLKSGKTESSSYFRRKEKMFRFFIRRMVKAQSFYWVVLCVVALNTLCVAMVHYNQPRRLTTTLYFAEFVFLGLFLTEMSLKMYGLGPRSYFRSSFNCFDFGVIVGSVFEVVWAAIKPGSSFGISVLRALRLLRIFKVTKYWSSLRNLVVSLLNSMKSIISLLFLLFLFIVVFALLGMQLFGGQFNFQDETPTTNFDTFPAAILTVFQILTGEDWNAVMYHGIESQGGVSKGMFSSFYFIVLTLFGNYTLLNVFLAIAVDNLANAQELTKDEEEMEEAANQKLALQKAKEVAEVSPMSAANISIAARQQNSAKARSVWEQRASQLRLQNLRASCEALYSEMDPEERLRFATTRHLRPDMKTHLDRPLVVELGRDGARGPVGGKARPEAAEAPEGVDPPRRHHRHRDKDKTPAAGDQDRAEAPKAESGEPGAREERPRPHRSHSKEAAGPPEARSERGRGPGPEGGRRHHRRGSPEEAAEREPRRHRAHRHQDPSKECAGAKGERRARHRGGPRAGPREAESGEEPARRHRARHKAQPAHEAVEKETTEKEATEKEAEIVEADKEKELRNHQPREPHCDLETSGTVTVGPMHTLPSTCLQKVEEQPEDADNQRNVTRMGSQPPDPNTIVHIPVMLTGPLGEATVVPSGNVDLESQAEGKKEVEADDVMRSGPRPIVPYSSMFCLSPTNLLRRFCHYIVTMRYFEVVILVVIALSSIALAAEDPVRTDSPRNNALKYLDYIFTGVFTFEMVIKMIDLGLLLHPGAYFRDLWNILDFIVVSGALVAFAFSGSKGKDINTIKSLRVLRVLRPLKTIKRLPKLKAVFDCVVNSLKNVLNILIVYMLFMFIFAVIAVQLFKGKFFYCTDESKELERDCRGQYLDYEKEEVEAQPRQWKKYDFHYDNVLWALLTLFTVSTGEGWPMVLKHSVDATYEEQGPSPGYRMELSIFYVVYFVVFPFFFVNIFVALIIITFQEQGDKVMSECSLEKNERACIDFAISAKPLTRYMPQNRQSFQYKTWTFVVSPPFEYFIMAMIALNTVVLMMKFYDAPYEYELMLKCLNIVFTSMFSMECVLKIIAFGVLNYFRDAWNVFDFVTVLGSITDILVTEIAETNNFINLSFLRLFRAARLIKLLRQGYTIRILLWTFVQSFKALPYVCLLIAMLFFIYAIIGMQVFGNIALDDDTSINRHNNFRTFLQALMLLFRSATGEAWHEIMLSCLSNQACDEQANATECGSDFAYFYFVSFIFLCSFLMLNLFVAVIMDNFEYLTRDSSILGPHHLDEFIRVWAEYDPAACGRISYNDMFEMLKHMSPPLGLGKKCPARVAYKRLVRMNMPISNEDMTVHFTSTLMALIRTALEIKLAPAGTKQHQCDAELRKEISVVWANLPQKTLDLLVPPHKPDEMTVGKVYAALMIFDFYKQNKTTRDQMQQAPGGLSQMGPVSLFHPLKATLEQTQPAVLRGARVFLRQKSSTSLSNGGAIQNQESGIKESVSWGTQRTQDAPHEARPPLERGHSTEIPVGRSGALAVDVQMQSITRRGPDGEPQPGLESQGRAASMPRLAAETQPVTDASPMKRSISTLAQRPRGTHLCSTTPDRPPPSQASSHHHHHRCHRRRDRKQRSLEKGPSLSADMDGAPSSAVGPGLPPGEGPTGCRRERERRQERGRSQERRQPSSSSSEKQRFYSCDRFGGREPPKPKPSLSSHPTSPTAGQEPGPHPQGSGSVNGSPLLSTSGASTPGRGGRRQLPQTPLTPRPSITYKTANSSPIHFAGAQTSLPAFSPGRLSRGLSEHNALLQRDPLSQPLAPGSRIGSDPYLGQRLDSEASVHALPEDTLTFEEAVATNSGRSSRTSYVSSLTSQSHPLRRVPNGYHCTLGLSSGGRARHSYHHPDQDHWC
T6 sequence (Q02410 whole entry): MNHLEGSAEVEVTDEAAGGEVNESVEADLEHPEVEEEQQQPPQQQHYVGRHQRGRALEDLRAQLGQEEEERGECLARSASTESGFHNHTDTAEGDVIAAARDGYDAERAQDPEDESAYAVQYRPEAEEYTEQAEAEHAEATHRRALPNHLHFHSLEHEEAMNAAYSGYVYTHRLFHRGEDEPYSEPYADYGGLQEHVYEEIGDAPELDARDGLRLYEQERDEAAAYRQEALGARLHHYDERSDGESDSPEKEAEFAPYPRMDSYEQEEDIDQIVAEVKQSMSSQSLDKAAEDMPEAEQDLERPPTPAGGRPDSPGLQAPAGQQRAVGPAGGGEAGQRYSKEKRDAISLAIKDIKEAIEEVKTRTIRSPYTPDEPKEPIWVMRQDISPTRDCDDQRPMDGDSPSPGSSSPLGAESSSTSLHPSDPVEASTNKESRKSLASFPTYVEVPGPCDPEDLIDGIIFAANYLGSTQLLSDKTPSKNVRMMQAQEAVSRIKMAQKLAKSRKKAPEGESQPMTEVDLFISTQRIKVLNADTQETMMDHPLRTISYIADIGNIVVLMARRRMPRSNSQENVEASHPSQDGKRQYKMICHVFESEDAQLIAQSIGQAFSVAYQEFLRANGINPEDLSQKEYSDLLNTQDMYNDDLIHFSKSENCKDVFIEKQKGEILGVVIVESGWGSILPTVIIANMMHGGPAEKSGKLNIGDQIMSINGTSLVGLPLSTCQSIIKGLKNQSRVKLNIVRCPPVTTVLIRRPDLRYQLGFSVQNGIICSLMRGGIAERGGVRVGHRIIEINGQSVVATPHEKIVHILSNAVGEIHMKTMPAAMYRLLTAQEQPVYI
Sequence of Photoreceptor-specific nuclear receptor (Q9Y5X4 whole entry, the tested form may be a part): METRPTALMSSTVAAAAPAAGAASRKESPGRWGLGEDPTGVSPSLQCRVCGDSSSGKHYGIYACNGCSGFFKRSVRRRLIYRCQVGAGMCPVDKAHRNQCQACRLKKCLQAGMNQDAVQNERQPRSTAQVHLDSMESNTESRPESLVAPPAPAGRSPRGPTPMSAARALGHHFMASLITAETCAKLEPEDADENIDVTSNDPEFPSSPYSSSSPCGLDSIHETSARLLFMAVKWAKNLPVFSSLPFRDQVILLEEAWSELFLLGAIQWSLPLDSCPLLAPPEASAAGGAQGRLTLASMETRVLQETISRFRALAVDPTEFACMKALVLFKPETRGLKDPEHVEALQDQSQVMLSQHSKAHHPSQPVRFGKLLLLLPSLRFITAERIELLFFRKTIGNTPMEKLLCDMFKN
Sequence of DNA repair and recombination protein RAD54-like (Q92698 whole entry): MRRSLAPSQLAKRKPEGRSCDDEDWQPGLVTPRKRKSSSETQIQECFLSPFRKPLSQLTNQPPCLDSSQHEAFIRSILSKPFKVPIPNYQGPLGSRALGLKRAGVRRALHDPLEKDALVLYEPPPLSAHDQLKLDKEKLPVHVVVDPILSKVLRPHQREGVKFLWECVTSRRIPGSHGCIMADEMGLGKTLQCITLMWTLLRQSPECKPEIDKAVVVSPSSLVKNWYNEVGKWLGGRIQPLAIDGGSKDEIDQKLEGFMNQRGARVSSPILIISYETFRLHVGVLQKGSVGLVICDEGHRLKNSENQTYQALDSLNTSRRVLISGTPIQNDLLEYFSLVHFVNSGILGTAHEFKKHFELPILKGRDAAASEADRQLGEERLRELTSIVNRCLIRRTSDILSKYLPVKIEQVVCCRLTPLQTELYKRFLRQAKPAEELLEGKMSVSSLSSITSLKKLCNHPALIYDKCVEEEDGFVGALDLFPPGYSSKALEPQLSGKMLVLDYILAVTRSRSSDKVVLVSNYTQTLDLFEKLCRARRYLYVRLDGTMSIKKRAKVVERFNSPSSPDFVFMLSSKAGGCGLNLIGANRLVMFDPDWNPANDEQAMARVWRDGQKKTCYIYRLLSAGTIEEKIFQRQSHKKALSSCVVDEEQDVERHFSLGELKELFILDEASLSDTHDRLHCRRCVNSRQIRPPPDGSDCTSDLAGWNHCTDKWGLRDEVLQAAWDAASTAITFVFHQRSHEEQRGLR

Compound: CSCC[C@H](NC(=O)OC(C)(C)C)C(=O)N/N=C/c1cccc2cccnc12
- IC50 (H9c2): > 79 µM (inactive)
- AC50 [1]: 132 µM (active)

Compound: CC(C)(C)c1ccc(CSc2nc(N)cc(O)n2)cc1
- IC50 [2]: 5.21 µM (active)

Compound: O=C(NCCCn1ccnc1)C(=O)NCC1OCCN1S(=O)(=O)c1ccc2c(c1)OCCO2 (stereo not drawn)
- AC50 [1]: 89.6 µM (active)

Compound: Cc1ccccc1C(=O)Nc1cc[n+](-c2nc3ccccc3nc2[N-]S(=O)(=O)c2ccc(F)cc2)cc1
- IC50 [3]: 5.96 µM (active)
- IC50 [4]: 23.8 µM (active)

Compound: Cc1nc2ccccc2n1Cc1ccc(Br)cc1
- EC50 [5]: 0.668 µM (active)
- AC50 (INS1): 2.84 µM (active)
- IC50 (Protein Wnt-3a): 0.369 µM (active)
- IC50 (Galanin receptor type 3): 0.14 µM (active)
- EC50 (cells [6]): > 29.9 µM (inactive)
- IC50 [7]: 4.4 µM (active)

Compound: COc1cc2c(O)c3c(c(-c4ccc5c(c4)OCO5)c2cc1OC)C(=O)OC3 [DIPHYLLIN]
- EC50 [8]: 33.5 µM (active)
- EC50 [9]: 2.59 µM (active)
- EC50 [10]: 1.65 µM (active)
- EC50 [11]: > 30 µM (not active)
- IC50 [2]: 0.962 µM (active)
- IC50 (cells [12]): > 67.6 µM (inactive)
- IC50 [13]: > 67.6 µM (inactive)
- EC50 (HEK293 [14]): > 59.7 µM (inactive)
- EC50 (HEK293 [15]): > 59.7 µM (inactive)

Compound: COc1ccc2cc3c(N)nn(C(=O)c4cccc([N+](=O)[O-])c4)c3nc2c1
- IC50 [16]: 12.2 µM (active)
- IC50 [17]: > 50 µM (inactive)
- AC50 (HEK293 [18]): 3.08 µM (active)
- IC50 [19]: 4.35 µM (active)
- IC50 [20]: 19.1 µM (active)

Compound: Cc1[nH]ccc2c1[nH]c1cc(=O)ccc12 [HARMOL]
- AC50 [21]: 0.298 µM (active)
- AC50 [22]: 23.9 µM (active)
- IC50 [23]: 44.9 µM (active)

Compound: C/C(=N\NC(=O)c1cccc(N/N=C(\C)c2ccco2)c1)c1ccco1
- IC50 [24]: 3.19 µM (active)
- IC50 [19]: 3.17 µM (active)
- IC50 [3]: 10.6 µM (active)
- IC50 [4]: 14.8 µM (active)
